Data published in patent publication US20080027044A1, “Prodrug antibiotic screens” (priority 2006, published 2008).
In brackets after ≈: the same amount, converted by molar mass.

What was measured:
[1] = system: E. coli K12 ΔtolC overexpressing activating enzyme; test: MIC, broth microdilution, tolC deletion strains (MDR efflux test); assay type: cell-based
Source text: Prodrugs are activated by activating enzymes into reactive molecules that bind to their targets, creating an irreversible sink. This may lead to insensitivity of the overall process to MDR efflux. In order to test this possibility, an E. coli K12 with a deletion in tolC coding for the outer membrane porin that is a component of the transenvelope MDRs was utilized (Li, X. Z et al. (2004) Drugs 64:159-204). This strain is highly sensitive to antibiotics (Tegos et al. (2002) Antimicrob. Agents Chemother. 46:3133-3141). […] The substrate specificity of AcrAB is remarkably broad, and includes essentially all small molecular weight amphipathic compounds. The AcrAB substrates include anions (SDS, fatty acids, bile acids), neutral compounds (macrolides, chloramphenicol, tetracyclines) and cations or compounds that can form cations (acridine, quaternary compound antiseptics, fluoroquinolones). AcrAB can extrude the best natural broad spectrum antibiotics that evolved for good penetration —chloramphenicol and tetracycline; and extrude the best synthetic broad-spectrums, the fluoroquinolones. Indeed, amphipathic antimicrobials that are not an AcrAB substrate are not known.
(§1) Cells were tested in a standard broth microdilution assay, inoculating 10^5 cells per well of a microtiter plate in LB broth. Overexpression and deletion strains were compared to the appropriate isogenic wild type. IPTG was added at 1 mM to growth medium. Experiments involving nfnB and nfsA strains were performed under anaerobic conditions.

[2] = system: E. coli K12 overexpressing activating enzyme; test: MIC, broth microdilution, strains overexpressing activating enzyme; assay type: cell-based; conditions: for MIC: 1 mM IPTG; for susceptibility of strains overexpressing the corresponding activating enzymes: in words
Source text: Next, the hits that verify and have reduced activity compared to wild type or no activity against strains deleted in a known or putative enzyme are validated. The rationale is to test the hit against a strain overexpressing the putative activating enzyme. Strains overexpressing activating enzymes have considerably higher susceptibility to prodrugs. It is important to note that conventional antibiotics that inhibit specific targets have increased activity against strains with diminished expression of the target, and decreased activity if the target is overproduced (Schmid, M. B. (2001) New targets and strategies for identification of novel classes of antibiotics. In Antibiotic Development and Resistance. Hughes, D. and Andersson, D. I. (eds). New York: Taylor and Francis, pp. 197-208; Sun, D.e.a. (2001) In 41st Interscience Conference on Antimicrobial Agents and Chemotherapy Chicago: ASM, pp. 77). A prodrug hit has higher activity against a strain overexpressing an activating enzyme, and lower activity against a strain lacking/diminished in an activating enzyme. This behavior of a prodrug hit is the exact opposite from what one expects from a specific antibiotic, and will provide for an excellent preliminary validation of prodrugs. This validation is facilitated by the availability of the ASKA library of E. coli strains overexpressing all known ORFs. The University of Nagoya freely distributes this resource (Saka et al. (2005) DNA Res. 12:63-68). The library contains 4,382 individual E. coli K12 W3110 clones, each carrying a single ORF cloned in an expression vector pCA24N under a pT5/lac promoter. The N-termini carry a his-tag linked to the ORF by a 7 amino acid spacer. The vector carries a CAM resistance marker and a lacl^q gene for a tight control of IPTG-inducible expression.
(§2) The ASKA strains of interest are validated for functional expression of the enzyme. If the protein is not expressed from a given expression vector the ORF will be recloned. A strain overexpressing the activating enzyme from the ASKA library is then tested with the hit compound. If the hit has greater activity against this overexpressing strain as compared to the wild type, this indicates a prodrug. The test is performed in a standard broth microdilution assay for MIC determination. Hits with the lowest wild type MIC are then focused on.
as §1

[3] = Schulz et al. (1997); cited from earlier work
P. aeruginosa = test: Killing of logarithmic, stationary and biofilm cultures by bactericidal antimicrobials (colony count); assay type: cell-based; conditions: in words
Description: Persister cells in planktonic and biofilm populations are characterized for their antibiotic sensitivity in this example. Several bactericidal antimicrobials were chosen to test the resistance of P. aeruginosa to killing—ofloxacin, a fluoroquinolone; tobramycin, an aminoglycoside; carbenicillin, a β-lactam; and peracetic acid, a disinfectant oxidant (Spoering et al. (2001) J. Bacteriol. 183:6746-6751). Biofilms were grown essentially by the method of Ceri (Ceri et al. (1999) J. Clin. Microbiol. 37:1771-1776) and as described in Brooun et al. (2000) Antimicrob. Agents Chemother. 44:640-646. The device used for biofilm formation is a platform carrying 96 polystyrene pegs that fit in a microtiter plate. Preformed biofilms were incubated in the presence of an antimicrobial agent, and survival was measured after disrupting the biofilms by colony count.
Carbenicillin is a bactericidal antibiotic that, similarly to most β-lactams, only kills rapidly growing cells (Tuomanen et al. (1986) Scand. J. Gastroenterol. Suppl:10-14). Logarithmic state, stationary and biofilm cultures were challenged with carbenicillin.
Unlike carbenicillin, ofloxacin can kill non-growing cells (Brooun et al. (2000) Antimicrob. Agents Chemother. 44:640-646). […] After a 6 hours incubation time with the antibiotic, viability was determined by colony count. […]

[4] = system: E. coli K12 Δactivating enzyme; test: MIC, broth microdilution, strains deleted in activating enzyme; assay type: cell-based; conditions: anaerobic conditions
Description: as §1

E. coli K12 wt = test: MIC, standard broth microdilution assay, wild type; assay type: cell-based; conditions: in words; all strains tested
Description: as §2, §1

[5] = E. coli K12 ΔtolC nfnB+ (overexpressing), anaerobic conditions
[6] = E. coli K12 ΔtolC nfsA+ (overexpressing), anaerobic conditions
[7] = E. coli K12 nfsA+ (overexpressing), anaerobic conditions
[8] = E. coli K12 nfnB+ (overexpressing), anaerobic conditions

SMILES: CC[C@H]1OC(=O)[C@H](C)[C@@H](O[C@H]2C[C@@](C)(OC)[C@@H](O)[C@H](C)O2)[C@H](C)[C@@H](O[C@@H]2O[C@H](C)C[C@H](N(C)C)[C@H]2O)[C@](C)(O)C[C@@H](C)C(=O)[C@H](C)[C@@H](O)[C@]1(C)O [Erythromycin]
- MIC ([1]; E. coli K12 ΔtolC codA+ (overexpressing)): 1.56 µg/mL (≈ 2.13 µM)
- MIC ([1]; E. coli K12 ΔtolC deoD+ (overexpressing)): 1.56 µg/mL (≈ 2.13 µM)
- MIC [1, 5]: 1.56 µg/mL (≈ 2.13 µM)
- MIC [1, 6]: 1.56 µg/mL (≈ 2.13 µM)
- MIC ([2]; E. coli K12 codA+ (overexpressing)): 200 µg/mL (≈ 273 µM)
- MIC ([2]; E. coli K12 deoD+ (overexpressing)): 200 µg/mL (≈ 273 µM)
- MIC [2, 7]: 200 µg/mL (≈ 273 µM)

SMILES: CC1COc2c(N3CCN(C)CC3)c(F)cc3c(=O)c(C(=O)O)cn1c23 (stereo not drawn) [ofloxacin]
- clinically achievable concentration [3]: 5 µg/mL

SMILES: NC[C@H]1O[C@H](O[C@H]2[C@H](O)[C@@H](O[C@H]3O[C@H](CO)[C@@H](O)[C@H](N)[C@H]3O)[C@H](N)C[C@@H]2N)[C@H](N)C[C@@H]1O [Tobramycin, tobramycin]
- clinically achievable concentration [3]: 10 µg/mL
- killing of logarithmic cells (P. aeruginosa; logarithmic cells): no logarithmic persisters were detected

SMILES: NC(=O)c1cc([N+](=O)[O-])cc([N+](=O)[O-])c1 [3,5-Dinitrobenzamide]
- MIC [1, 5]: 15.6 µg/mL (≈ 73.9 µM)
- MIC [1, 6]: 7.8 µg/mL (≈ 36.9 µM)
- MIC ([4]; E. coli K12 nfnB− (deleted)): >500 µg/mL
- MIC ([4]; E. coli K12 nfsA− (deleted)): >500 µg/mL
- MIC [2, 8]: 15.6 µg/mL (≈ 73.9 µM)
- MIC [2, 7]: 7.8 µg/mL (≈ 36.9 µM)
- susceptibility of strains overexpressing the corresponding activating enzymes [2]: significantly increased susceptibilities

SMILES: CC(=O)OO [Peracetic acid, peracetic acid]
- killing of logarithmic, stationary and biofilm cultures (P. aeruginosa; all three cultures): all cultures were sterilized

SMILES: NC(=O)c1cc(N2CC2)c([N+](=O)[O-])cc1[N+](=O)[O-] [Dinitroaziridinylbenzamide (CB1954), Dinitroaziridinylbenzamide]
- MIC [1, 5]: 3.3 µg/mL (≈ 13.1 µM)
- MIC [1, 6]: 6.3 µg/mL (≈ 25 µM)
- MIC [2, 8]: 3.3 µg/mL (≈ 13.1 µM)
- MIC [2, 7]: 6.3 µg/mL (≈ 25 µM)
- susceptibility of strains overexpressing the corresponding activating enzymes [2]: significantly increased susceptibilities

SMILES: Nc1nc(O)ncc1F [5-fluorocytosine, 5-Fluorocytosine]
- activity against any strains tested (E. coli K12 wt): little activity
